According to patent US12404262B2 (priority 2021, dated 2025):
In brackets after ≈: the same amount, converted by molar mass. Read-outs that look alike come from different tables or passages of the source.

Assays:
physchem = details: 25 °C, thermodynamic from solid
[1] = Solubility in simulated intestinal fluids (FaSSIF/FeSSIF); details: 25 °C, thermodynamic from solid
[2] = 0.1N HCl, 1.0% DMSO, 24-hour incubation at ambient temperature, maximum theoretical 100 μM, first value of the cell
[3] = 1×PBS buffer (pH 7.4), 1.0% DMSO, 24-hour incubation at ambient temperature, maximum theoretical 100 μM, second value of the cell
[4] = fasted state simulated intestinal fluid (FaSSIF), fassif
[5] = fed state simulated intestinal fluid (FeSSIF), fessif

CC(C)(C#Cc1ccc(-c2ccc(Cl)c3c(N(C(=O)NCCP(=O)(O)O)S(C)(=O)=O)nn(CC(F)(F)F)c23)c([C@H](Cc2cc(F)cc(F)c2)NC(=O)Cn2nc(C(F)(F)F)c3c2C(F)(F)[C@@H]2C[C@H]32)n1)S(C)(=O)=O [Compound 54, (2-(3-(4-chloro-7-(2-((S)-1-(2-((3bS,4aR)-5,5-difluoro-3-(trifluoromethyl)-3b,4,4a,5-tetrahydro-1H-cyclopropa[3,4]cyclopenta[1,2-c]pyrazol-1-yl)acetamido)-2-(3,5-difluorophenyl)ethyl)-6-(3-methyl-3-(methylsulfonyl)but-1-yn-1-yl)pyridin-3-yl)-1-(2,2,2-trifluoroethyl)-1H-indazol-3-yl)-3-(methylsulfonyl)ureido)ethyl)phosphonic acid]
pH 2 solubility [2]: 1 μM
pH 7 solubility [3]: 41 μM
solubility (physchem; fassif): 416 µg/mL (≈ 372 µM)

CN(Cc1ccccc1OP(=O)(O)O)C(=O)N(c1nn(CC(F)(F)F)c2c(-c3ccc(C#CC(C)(C)S(C)(=O)=O)nc3[C@H](Cc3cc(F)cc(F)c3)NC(=O)Cn3nc(C(F)(F)F)c4c3C(F)(F)[C@@H]3C[C@H]43)ccc(Cl)c12)S(C)(=O)=O [Compound 67, 2-((3-(4-chloro-7-(2-((S)-1-(2-((3bS,4aR)-5,5-difluoro-3-(trifluoromethyl)-3b,4,4a,5-tetrahydro-1H-cyclopropa[3,4]cyclopenta[1,2-c]pyrazol-1-yl)acetamido)-2-(3,5-difluorophenyl)ethyl)-6-(3-methyl-3-(methylsulfonyl)but-1-yn-1-yl)pyridin-3-yl)-1-(2,2,2-trifluoroethyl)-1H-indazol-3-yl)-1-methyl-3-(methylsulfonyl)ureido)methyl)phenyl dihydrogen phosphate]
pH 2 solubility (pH 2): 2/79 μM
pH 7 solubility (pH 7.4): 2/79 μM
solubility (physchem; fassif): 536 µg/mL
solubility (physchem; fessif): 707 µg/mL

CN(CCN(C)C(=O)N(c1nn(CC(F)(F)F)c2c(-c3ccc(C#CC(C)(C)S(C)(=O)=O)nc3[C@H](Cc3cc(F)cc(F)c3)NC(=O)Cn3nc(C(F)(F)F)c4c3C(F)(F)[C@@H]3C[C@H]43)ccc(Cl)c12)S(C)(=O)=O)C(=O)OCOP(=O)(O)O [Compound 83, (phosphonooxy)methyl (2-(3-(4-chloro-7-(2-((S)-1-(2-((3bS,4aR)-5,5-difluoro-3-(trifluoromethyl)-3b,4,4a,5-tetrahydro-1H-cyclopropa[3,4]cyclopenta[1,2-c]pyrazol-1-yl)acetamido)-2-(3,5-difluorophenyl)ethyl)-6-(3-methyl-3-(methylsulfonyl)but-1-yn-1-yl)pyridin-3-yl)-1-(2,2,2-trifluoroethyl)-1H-indazol-3-yl)-1-methyl-3-(methylsulfonyl)ureido)ethyl)(methyl)carbamate]
pH 2 solubility (pH 2): 1/61 μM
pH 7 solubility (pH 7.4): 1/61 μM
solubility (physchem; fassif): 1950 µg/mL (≈ 1580 µM)
solubility (physchem; fessif): 500 µg/mL (≈ 404 µM)

CN(CC(=O)OCOP(=O)(O)O)C(=O)N(c1nn(CC(F)(F)F)c2c(-c3ccc(C#CC(C)(C)S(C)(=O)=O)nc3[C@H](Cc3cc(F)cc(F)c3)NC(=O)Cn3nc(C(F)(F)F)c4c3C(F)(F)[C@@H]3C[C@H]43)ccc(Cl)c12)S(C)(=O)=O [Compound 84, (phosphonooxy)methyl N-((4-chloro-7-(2-((S)-1-(2-((3bS,4aR)-5,5-difluoro-3-(trifluoromethyl)-3b,4,4a,5-tetrahydro-1H-cyclopropa[3,4]cyclopenta[1,2-c]pyrazol-1-yl)acetamido)-2-(3,5-difluorophenyl)ethyl)-6-(3-methyl-3-(methylsulfonyl)but-1-yn-1-yl)pyridin-3-yl)-1-(2,2,2-trifluoroethyl)-1H-indazol-3-yl)(methylsulfonyl)carbamoyl)-N-methylglycinate]
pH 2 solubility [2]: 5 μM
pH 7 solubility [3]: 16 μM
solubility (physchem; fassif): 154 µg/mL (≈ 129 µM)

CC(C)(C#Cc1ccc(-c2ccc(Cl)c3c(N(C(=O)OCC(=O)OCOP(=O)(O)O)S(C)(=O)=O)nn(CC(F)(F)F)c23)c([C@H](Cc2cc(F)cc(F)c2)NC(=O)Cn2nc(C(F)(F)F)c3c2C(F)(F)[C@@H]2C[C@H]32)n1)S(C)(=O)=O [Compound 94, (phosphonooxy)methyl 2-(((4-chloro-7-(2-((S)-1-(2-((3bS,4aR)-5,5-difluoro-3-(trifluoromethyl)-3b,4,4a,5-tetrahydro-1H-cyclopropa[3,4]cyclopenta[1,2-c]pyrazol-1-yl)acetamido)-2-(3,5-difluorophenyl)ethyl)-6-(3-methyl-3-(methylsulfonyl)but-1-yn-1-yl)pyridin-3-yl)-1-(2,2,2-trifluoroethyl)-1H-indazol-3-yl)(methylsulfonyl)carbamoyl)oxy)acetate]
pH 2 solubility [2]: <1/1 μM
pH 7 solubility [3]: <1/1 μM
solubility [1, 4]: 481 µg/mL (≈ 408 µM)
solubility [1, 5]: 189 µg/mL (≈ 160 µM)

CC(C)(C#Cc1ccc(-c2ccc(Cl)c3c(N(C(=O)OCCCP(=O)(O)O)S(C)(=O)=O)nn(CC(F)(F)F)c23)c([C@H](Cc2cc(F)cc(F)c2)NC(=O)Cn2nc(C(F)(F)F)c3c2C(F)(F)[C@@H]2C[C@H]32)n1)S(C)(=O)=O [Compound 112, (3-(((4-chloro-7-(2-((S)-1-(2-((3bS,4aR)-5,5-difluoro-3-(trifluoromethyl)-3b,4,4a,5-tetrahydro-1H-cyclopropa[3,4]cyclopenta[1,2-c]pyrazol-1-yl)acetamido)-2-(3,5-difluorophenyl)ethyl)-6-(3-methyl-3-(methylsulfonyl)but-1-yn-1-yl)pyridin-3-yl)-1-(2,2,2-trifluoroethyl)-1H-indazol-3-yl)(methylsulfonyl)carbamoyl)oxy)propyl)phosphonic acid]
pH 2 solubility [2]: 1 μM
pH 7 solubility [3]: 77 μM
solubility [1, 4]: 778 µg/mL (≈ 686 µM)
solubility [1, 5]: 1250 µg/mL (≈ 1100 µM)

CC(C)(C#Cc1ccc(-c2ccc(Cl)c3c(N(C(=O)OCCCC(=O)O)S(C)(=O)=O)nn(CC(F)(F)F)c23)c([C@H](Cc2cc(F)cc(F)c2)NC(=O)Cn2nc(C(F)(F)F)c3c2C(F)(F)[C@@H]2C[C@H]32)n1)S(C)(=O)=O [Compound 113]
pH 2 solubility [2]: 1 μM
pH 7 solubility [3]: 5 μM
solubility [1, 4]: 5 µg/mL (≈ 4.55 µM)
solubility [1, 5]: 8 µg/mL (≈ 7.28 µM)

CC(C)(C#Cc1ccc(-c2ccc(Cl)c3c(N(C(=O)OCCNC(=O)C(=O)O)S(C)(=O)=O)nn(CC(F)(F)F)c23)c([C@H](Cc2cc(F)cc(F)c2)NC(=O)Cn2nc(C(F)(F)F)c3c2C(F)(F)[C@@H]2C[C@H]32)n1)S(C)(=O)=O [Compound 122, 2-((2-(((4-chloro-7-(2-((S)-1-(2-((3bS,4aR)-5,5-difluoro-3-(trifluoromethyl)-3b,4,4a,5-tetrahydro-1H-cyclopropa[3,4]cyclopenta[1,2-c]pyrazol-1-yl)acetamido)-2-(3,5-difluorophenyl)ethyl)-6-(3-methyl-3-(methylsulfonyl)but-1-yn-1-yl)pyridin-3-yl)-1-(2,2,2-trifluoroethyl)-1H-indazol-3-yl)(methylsulfonyl)carbamoyl)oxy)ethyl)amino)-2-oxoacetic acid]
pH 2 solubility [2]: 1 μM
pH 7 solubility [3]: 16 μM
solubility [1, 4]: 7 µg/mL (≈ 6.21 µM)
solubility [1, 5]: 162 µg/mL (≈ 144 µM)

CC(C)(C#Cc1ccc(-c2ccc(Cl)c3c(N(C(=O)OCCNC(=N)N)S(C)(=O)=O)nn(CC(F)(F)F)c23)c([C@H](Cc2cc(F)cc(F)c2)NC(=O)Cn2nc(C(F)(F)F)c3c2C(F)(F)[C@@H]2C[C@H]32)n1)S(C)(=O)=O [Compound 123, 2-guanidinoethyl (4-chloro-7-(2-((S)-1-(2-((3bS,4aR)-5,5-difluoro-3-(trifluoromethyl)-3b,4,4a,5-tetrahydro-1H-cyclopropa[3,4]cyclopenta[1,2-c]pyrazol-1-yl)acetamido)-2-(3,5-difluorophenyl)ethyl)-6-(3-methyl-3-(methylsulfonyl)but-1-yn-1-yl)pyridin-3-yl)-1-(2,2,2-trifluoroethyl)-1H-indazol-3-yl)(methylsulfonyl)carbamate]
pH 2 solubility [2]: 78 μM
pH 7 solubility [3]: 71 μM
solubility [1, 4]: 120 µg/mL (≈ 109 µM)
solubility [1, 5]: 153 µg/mL (≈ 139 µM)

CC(C)(C#Cc1ccc(-c2ccc(Cl)c3c(N(C(=O)OC(CC(=O)O)CC(=O)O)S(C)(=O)=O)nn(CC(F)(F)F)c23)c([C@H](Cc2cc(F)cc(F)c2)NC(=O)Cn2nc(C(F)(F)F)c3c2C(F)(F)[C@@H]2C[C@H]32)n1)S(C)(=O)=O [Compound 125, 3-(((4-chloro-7-(2-((S)-1-(2-((3bS,4aR)-5,5-difluoro-3-(trifluoromethyl)-3b,4,4a,5-tetrahydro-1H-cyclopropa[3,4]cyclopenta[1,2-c]pyrazol-1-yl)acetamido)-2-(3,5-difluorophenyl)ethyl)-6-(3-methyl-3-(methylsulfonyl)but-1-yn-1-yl)pyridin-3-yl)-1-(2,2,2-trifluoroethyl)-1H-indazol-3-yl)(methylsulfonyl)carbamoyl)oxy)pentanedioic acid]
pH 2 solubility [2]: 14 μM
pH 7 solubility [3]: 68 μM
solubility [1, 4]: 617 µg/mL (≈ 540 µM)
solubility [1, 5]: 42 µg/mL (≈ 36.8 µM)

CC(C)(C#Cc1ccc(-c2ccc(Cl)c3c(N(C(=O)OCCC(C(=O)O)C(=O)O)S(C)(=O)=O)nn(CC(F)(F)F)c23)c([C@H](Cc2cc(F)cc(F)c2)NC(=O)Cn2nc(C(F)(F)F)c3c2C(F)(F)[C@@H]2C[C@H]32)n1)S(C)(=O)=O [Compound 126, 2-(2-(((4-chloro-7-(2-((S)-1-(2-((3bS,4aR)-5,5-difluoro-3-(trifluoromethyl)-3b,4,4a,5-tetrahydro-1H-cyclopropa[3,4]cyclopenta[1,2-c]pyrazol-1-yl)acetamido)-2-(3,5-difluorophenyl)ethyl)-6-(3-methyl-3-(methylsulfonyl)but-1-yn-1-yl)pyridin-3-yl)-1-(2,2,2-trifluoroethyl)-1H-indazol-3-yl)(methylsulfonyl)carbamoyl)oxy)ethyl)malonic acid]
pH 2 solubility [2]: 1 μM
pH 7 solubility [3]: 5 μM
solubility [1, 4]: 21 µg/mL (≈ 18.4 µM)
solubility [1, 5]: 218 µg/mL (≈ 191 µM)

CC(C)(C#Cc1ccc(-c2ccc(Cl)c3c(N(C(=O)OC[C@H](CC(=O)O)NC(=O)C(=O)O)S(C)(=O)=O)nn(CC(F)(F)F)c23)c([C@H](Cc2cc(F)cc(F)c2)NC(=O)Cn2nc(C(F)(F)F)c3c2C(F)(F)[C@@H]2C[C@H]32)n1)S(C)(=O)=O [Compound 131]
pH 2 solubility [2]: 1 μM
pH 7 solubility [3]: 73 μM
solubility [1, 4]: 816 µg/mL (≈ 688 µM)
solubility [1, 5]: 427 µg/mL (≈ 360 µM)
